Experimental data: EP4745153A1, “GLP-1, GIP AND GCG RECEPTOR […] USE THEREOF” (Jiangsu Hengrui Pharmaceuticals Co., Ltd., priority 2023, dated 2025)
Like-named read-outs stand apart in the source and are kept apart here. Starred links: 1 amine or outer side, 2 acyl side, 3 side chain; linkers in the order of their positions; H or OH if unused. Non-standard residues stand in square brackets, D forms with d. Residues, ends and D or L forms follow the SMILES beside them. Groups on a side chain read outwards from the residue. *: point of attachment. C20 diacid = O=C(O)CCCCCCCCCCCCCCCCCCC(=O)*; γGlu = O=C(O)[C@H](CCC(=O)[*:2])N[*:1]; αMeK = C[C@](N)(CCCCN)C(=O)O; AEEA = NCCOCCOCC(=O)O; Aib = CC(C)(N)C(=O)O

How the values were obtained:
human GLP-1R = molecular target: T1, human GLP-1R (Homo sapiens, UniProt P43220); assay: cAMP HTRF agonist activity assay in CHO-K1 cells expressing GLP-1R; type: cell-based; for Activity against human GLP-1R (EC50 nM): 5% FBS, 0.1% Casein
T1 construct: expressed in transfected cells; host or cells: CHO-K1 clonal cell line
T1 sequence (P43220 24-463): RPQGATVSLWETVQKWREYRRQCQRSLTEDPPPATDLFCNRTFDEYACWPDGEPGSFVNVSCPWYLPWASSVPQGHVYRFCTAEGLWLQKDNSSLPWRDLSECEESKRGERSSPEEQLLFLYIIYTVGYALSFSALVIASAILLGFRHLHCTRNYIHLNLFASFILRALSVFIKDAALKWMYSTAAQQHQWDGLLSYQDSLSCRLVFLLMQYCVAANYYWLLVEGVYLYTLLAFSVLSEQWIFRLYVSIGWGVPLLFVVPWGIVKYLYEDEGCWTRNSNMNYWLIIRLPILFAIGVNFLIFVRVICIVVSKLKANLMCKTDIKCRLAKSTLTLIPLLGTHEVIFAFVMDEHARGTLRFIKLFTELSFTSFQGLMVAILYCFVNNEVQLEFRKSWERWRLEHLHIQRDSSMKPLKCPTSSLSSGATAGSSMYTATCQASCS
Protocol: Functional activity was determined in CHO-K1 clonal cell lines expressing GIPR, GLP-1R, and GCGR. […] Each recipient cell (5000 cells/well) was added to an SV 96-well plate (Cisbio, 66PL96025) and incubated with the prepared polypeptide at 37°Cfor 30 min. The resulting increase in intracellular cAMP was quantitatively measured using the cAMP-GS dynamic HTRF assay kit (Cisbio, 62AM4PEJ). Briefly, the intracellular cAMP levels were determined by adding cAMP-d2 conjugate in cell lysis buffer, followed by the antibody anti-cAMP-Eu cryptate (also in cell lysis buffer).
Using the maximum response percentage vs. the added polypeptide concentration, the relative EC50 values were derived through nonlinear regression analysis and fitted to a four-parameter logarithmic equation. For specific data, refer to Tables 7-1 to 7-8 below. […]

human GIPR = molecular target: T2, human GIPR (Homo sapiens, UniProt P48546); assay: cAMP HTRF agonist activity assay in CHO-K1 cells expressing GIPR; type: cell-based; settings: read-out: Activity against human GIPR (EC50 nM); note: 5% FBS, 0.1% Casein
T2 construct: expressed in transfected cells; host or cells: CHO-K1 clonal cell line
T2 sequence (P48546 22-466): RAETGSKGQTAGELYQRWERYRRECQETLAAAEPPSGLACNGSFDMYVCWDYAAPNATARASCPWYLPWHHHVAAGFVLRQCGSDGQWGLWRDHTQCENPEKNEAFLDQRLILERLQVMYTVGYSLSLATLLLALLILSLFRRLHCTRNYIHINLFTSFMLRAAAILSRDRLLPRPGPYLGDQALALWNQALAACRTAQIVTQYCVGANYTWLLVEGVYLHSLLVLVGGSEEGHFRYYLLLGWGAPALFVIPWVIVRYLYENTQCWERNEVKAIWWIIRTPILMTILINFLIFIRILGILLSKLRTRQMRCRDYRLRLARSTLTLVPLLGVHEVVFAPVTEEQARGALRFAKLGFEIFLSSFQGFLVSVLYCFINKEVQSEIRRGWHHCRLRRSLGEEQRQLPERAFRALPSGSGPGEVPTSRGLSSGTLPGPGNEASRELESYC
Procedure, shortened: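 Clonal CHO-K1 lines, 5000 cells/well, exposed to polypeptides for 30 min at 37°C. Intracellular cAMP read by HTRF (cAMP-d2 conjugate plus anti-cAMP-Eu cryptate in lysis buffer). Relative EC50 from four-parameter nonlinear fit of percent maximum response against concentration.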

[1] = Pharmacokinetics in mice after single intravenous injection; parameters: species or system C57 mice; settings: male, C57, mouse, in vivo, iv
Procedure, shortened: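 Male C57 mice (~25 g, 4-6 weeks, n=3) received a single i.v. dose of 200 nmol/kg in 1×PBS. Plasma collected from 5 min to 72 h was methanol-precipitated with verapamil internal standard and quantified by LC-MS (ESI positive, MRM); PK parameters were calculated by PKSolver.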

[2] = read-out: Activity against human GLP-1R (EC50 nM)

Compound | EC50 (human GLP-1R; [2]) [nM] | EC50 (human GIPR) [nM] | EC50 (human GLP-1R) [nM] | other results
CC[C@H](C)[C@H](NC(=O)[C@H](CO)NC(=O)[C@H](CC(C)C)NC(=O)[C@H](CC(=O)O)NC(=O)[C@H](CO)NC(=O)[C@@H](NC(=O)[C@H](Cc1ccccc1)NC(=O)[C@@H](NC(=O)CNC(=O)[C@H](Cc1c[nH]cn1)NC(=O)C(C)(C)NC(=O)[C@@H](N)Cc1c[nH]cn1)[C@@H](C)O)[C@@H](C)O)C(=O)N[C@@H](CC(C)C)C(=O)N[C@@H](CC(C)C)C(=O)N[C@@H](CCC(=O)O)C(=O)N[C@@H](CCCCNC(=O)COCCOCCNC(=O)COCCOCCNC(=O)CC[C@H](NC(=O)CCCCCCCCCCCCCCCCCCC(=O)O)C(=O)O)C(=O)N[C@@H](CCCCN)C(=O)N[C@@H](C)C(=O)N[C@@H](C)C(=O)NC1(C(=O)N[C@@H](CCC(=O)O)C(=O)N[C@@H](Cc2ccccc2)C(=O)N[C@H](C(=O)N[C@@H](CCC(=O)O)C(=O)N[C@@H](Cc2c[nH]c3ccccc23)C(=O)N[C@@H](CC(C)C)C(=O)N[C@@H](CC(C)C)C(=O)N[C@@H](C)C(=O)N[C@H](CCC(=O)O)C(=O)NCC(=O)N2CCC[C@H]2C(=O)N[C@@H](CO)C(=O)N[C@@H](CO)C(=O)NCC(=O)N[C@@H](C)C(=O)N2CCC[C@H]2C(=O)N2CCC[C@H]2C(=O)N2CCC[C@H]2C(=O)N[C@@H](CO)C(N)=O)C(C)C)CCC1 [Compound 0147] | 0.035 | 0.005 |  | 
CC[C@H](C)[C@H](NC(=O)[C@H](CO)NC(=O)[C@H](CC(C)C)NC(=O)[C@H](CC(=O)O)NC(=O)[C@H](CO)NC(=O)[C@@H](NC(=O)[C@H](Cc1ccccc1)NC(=O)[C@@H](NC(=O)CNC(=O)[C@H](Cc1c[nH]cn1)NC(=O)C(C)(C)NC(=O)[C@@H](N)Cc1c[nH]cn1)[C@@H](C)O)[C@@H](C)O)C(=O)N[C@@H](CC(C)C)C(=O)N[C@@H](CC(C)C)C(=O)N[C@@H](CCC(=O)O)C(=O)N[C@@H](CCCCNC(=O)COCCOCCNC(=O)COCCOCCNC(=O)CC[C@H](NC(=O)CCCCCCCCCCCCCCCCCCC(=O)O)C(=O)O)C(=O)N[C@@H](CCCCN)C(=O)N[C@@H](C)C(=O)N[C@@H](C)C(=O)NC1(C(=O)N[C@@H](CCC(=O)O)C(=O)N[C@@H](Cc2ccccc2)C(=O)N[C@H](C(=O)N[C@@H](CCC(=O)O)C(=O)N[C@@H](Cc2c[nH]c3ccccc23)C(=O)N[C@@H](CC(C)C)C(=O)N[C@@H](CC(C)C)C(=O)N[C@@H](C)C(=O)N[C@H](CCC(=O)O)C(=O)NCC(=O)N2CCC[C@H]2C(=O)N[C@@H](CO)C(=O)N[C@@H](CO)C(=O)NCC(=O)N[C@@H](C)C(=O)N2CCC[C@H]2C(=O)N2CCC[C@H]2C(=O)N2CCC[C@H]2C(=O)N[C@@H](CO)C(N)=O)C(C)C)CC1 [Compound 0146] | 0.033 | 0.009 |  | 
CC(C)C[C@H](NC(=O)[C@H](CC(C)C)NC(=O)[C@H](Cc1c[nH]c2ccccc12)NC(=O)[C@H](CCC(=O)O)NC(=O)[C@@H](NC(=O)[C@H](Cc1ccccc1)NC(=O)[C@H](CCC(=O)O)NC(=O)[C@H](CCC(N)=O)NC(=O)[C@H](C)NC(=O)[C@H](C)NC(=O)[C@H](CCCCN)NC(=O)[C@H](CCCCNC(=O)COCCOCCNC(=O)COCCOCCNC(=O)CC[C@H](NC(=O)CCCCCCCCCCCCCCCCCCC(=O)O)C(=O)O)NC(=O)[C@H](CCC(=O)O)NC(=O)[C@H](CC(C)C)NC(=O)C(C)(C)NC(=O)[C@H](CCCCN)NC(=O)[C@H](CO)NC(=O)[C@H](Cc1ccc(O)cc1)NC(=O)[C@H](CC(=O)O)NC(=O)[C@H](CO)NC(=O)[C@@H](NC(=O)[C@H](Cc1ccccc1)NC(=O)[C@@H](NC(=O)CNC(=O)[C@H](Cc1c[nH]cn1)NC(=O)C(C)(C)NC(=O)[C@@H](N)Cc1c[nH]cn1)[C@@H](C)O)[C@@H](C)O)C(C)C)C(=O)N[C@@H](C)C(=O)NCC(=O)NCC(=O)N1CCC[C@H]1C(=O)N[C@@H](CO)C(=O)N[C@@H](CO)C(=O)NCC(=O)N[C@@H](C)C(=O)N1CCC[C@H]1C(=O)N1CCC[C@H]1C(=O)N1CCC[C@H]1C(=O)N[C@@H](CO)C(N)=O [Compound 0107] | 0.016 |  |  | 
CC[C@H](C)[C@H](NC(=O)[C@H](CC(C)C)NC(=O)[C@H](Cc1c[nH]c2ccccc12)NC(=O)[C@H](CCC(=O)O)NC(=O)[C@@H](NC(=O)[C@H](Cc1ccccc1)NC(=O)[C@H](CCC(=O)O)NC(=O)[C@H](CCC(N)=O)NC(=O)[C@H](C)NC(=O)[C@H](C)NC(=O)[C@H](CCCCN)NC(=O)[C@H](CCCCNC(=O)COCCOCCNC(=O)COCCOCCNC(=O)CC[C@H](NC(=O)CCCCCCCCCCCCCCCCCCC(=O)O)C(=O)O)NC(=O)[C@H](CCC(=O)O)NC(=O)[C@H](CC(C)C)NC(=O)[C@H](Cc1ccc(O)cc1)NC(=O)[C@](C)(CCCCN)NC(=O)[C@H](CO)NC(=O)[C@H](Cc1ccc(O)cc1)NC(=O)[C@H](CC(=O)O)NC(=O)[C@H](CO)NC(=O)[C@@H](NC(=O)[C@H](Cc1ccccc1)NC(=O)[C@@H](NC(=O)CNC(=O)[C@H](Cc1c[nH]cn1)NC(=O)C(C)(C)NC(=O)[C@@H](N)Cc1c[nH]cn1)[C@@H](C)O)[C@@H](C)O)C(C)C)C(=O)N[C@@H](CCC(=O)O)C(=O)NCC(=O)NCC(=O)N1CCC[C@H]1C(=O)N[C@@H](CO)C(=O)N[C@@H](CO)C(=O)NCC(=O)N[C@@H](C)C(=O)N1CCC[C@H]1C(=O)N1CCC[C@H]1C(=O)N1CCC[C@H]1C(=O)N[C@@H](CO)C(N)=O [Compound 0115] (H-H[Aib]HGTFTSDYS[αMeK]YLEK([AEEA-AEEA-γGlu-C20 diacid])KAAQEFVEWLIEGGPSSGAPPPS-NH2) |  |  | 0.023 | 
CC[C@H](C)[C@H](NC(=O)[C@H](CO)NC(=O)[C@H](CC(C)C)NC(=O)[C@H](CC(=O)O)NC(=O)[C@H](CO)NC(=O)[C@@H](NC(=O)[C@H](Cc1ccccc1)NC(=O)[C@@H](NC(=O)CNC(=O)[C@H](Cc1c[nH]cn1)NC(=O)C(C)(C)NC(=O)[C@@H](N)Cc1c[nH]cn1)[C@@H](C)O)[C@@H](C)O)C(=O)N[C@@H](CC(C)C)C(=O)N[C@@H](CC(C)C)C(=O)N[C@@H](CCC(=O)O)C(=O)N[C@@H](CCCCNC(=O)COCCOCCNC(=O)COCCOCCNC(=O)CC[C@H](NC(=O)CCCCCCCCCCCCCCCCCCC(=O)O)C(=O)O)C(=O)N[C@@H](CCCCN)C(=O)N[C@@H](C)C(=O)N[C@@H](C)C(=O)N[C@@H](CCC(N)=O)C(=O)N[C@@H](CCC(=O)O)C(=O)N[C@@H](Cc1ccccc1)C(=O)N[C@H](C(=O)N[C@@H](CCC(=O)O)C(=O)N[C@@H](Cc1c[nH]c2ccccc12)C(=O)N[C@@H](CC(C)C)C(=O)N[C@@H](CC(C)C)C(=O)N[C@@H](C)C(=O)N[C@H](CCC(=O)O)C(=O)NCC(=O)N1CCC[C@H]1C(=O)N[C@@H](CO)C(=O)N[C@@H](CO)C(=O)NCC(=O)N[C@@H](C)C(=O)N1CCC[C@H]1C(=O)N1CCC[C@H]1C(=O)N1CCC[C@H]1C(=O)N[C@@H](CO)C(N)=O)C(C)C [Compound 0144] | 0.035 |  |  | clearance [1]: 0.114 mL/min/kg; half-life [1]: 9.7 h
CC(C)C[C@H](NC(=O)[C@H](CC(C)C)NC(=O)[C@H](Cc1c[nH]c2ccccc12)NC(=O)[C@H](CCC(=O)O)NC(=O)[C@@H](NC(=O)[C@H](Cc1ccccc1)NC(=O)[C@H](CCC(=O)O)NC(=O)[C@H](CCC(N)=O)NC(=O)[C@H](CCC(N)=O)NC(=O)[C@H](C)NC(=O)[C@H](CCCCN)NC(=O)[C@H](CCCCNC(=O)COCCOCCNC(=O)COCCOCCNC(=O)CC[C@H](NC(=O)CCCCCCCCCCCCCCCCCCC(=O)O)C(=O)O)NC(=O)[C@H](CCC(=O)O)NC(=O)[C@H](CC(C)C)NC(=O)[C@H](Cc1ccc(O)cc1)NC(=O)[C@](C)(CCCCN)NC(=O)[C@H](CO)NC(=O)[C@H](Cc1ccc(O)cc1)NC(=O)[C@H](CC(=O)O)NC(=O)[C@H](CO)NC(=O)[C@@H](NC(=O)[C@H](Cc1ccccc1)NC(=O)[C@@H](NC(=O)CNC(=O)[C@H](Cc1c[nH]cn1)NC(=O)C(C)(C)NC(=O)[C@@H](N)Cc1c[nH]cn1)[C@@H](C)O)[C@@H](C)O)C(C)C)C(=O)N[C@@H](C)C(=O)NCC(=O)NCC(=O)N1CCC[C@H]1C(=O)N[C@@H](CO)C(=O)N[C@@H](CO)C(=O)NCC(=O)N[C@@H](C)C(=O)N1CCC[C@H]1C(=O)N1CCC[C@H]1C(=O)N1CCC[C@H]1C(=O)N[C@@H](CO)C(N)=O [Compound 0113] (H-H[Aib]HGTFTSDYS[αMeK]YLEK([AEEA-AEEA-γGlu-C20 diacid])KAQQEFVEWLLAGGPSSGAPPPS-NH2) |  |  | 0.032 | 
